pEC50: −log10 of the molar value.

In the assay the test system is LXRα and/or LXRβ. The experiment in a line: LXR/LXRE co-transfection assay (luciferase reporter, CV-1 cells). The class given is cell-based, human. The following applies: IC50 or EC50 for LXR (LXRα and/or LXRβ, not distinguished), tested as described in Example 109, CV-1 cells. The source says:
To measure the ability of compounds to activate or inhibit the transcriptional activity of LXR in a cell based assay, the co-transfection assay was used. It has been shown that LXR functions as a heterodimer with RXR. For the co-transfection assay; expression plasmids for LXR and RXR are introduced via transient transfection into mammalian cells along with a luciferase reporter plasmid that contains one copy of a DNA sequence that is bound by LXR-RXR heterodimers (LXRE; Willy, P. ad. 1995). Treatment of transfected cells with an LXR agonist increases the transcriptional activity of LXR, which is measured by an increase in luciferase activity.
CV-1 African Green Monkey Kidney Cells Co-transfection expression plasmids, comprising full-length LXRα (pCMX-h LXRα, LXRβ (pCMX-hLXRβ), or RXRα (pCMX-RXR), reporter plasmid (LXREx1-Tk-Luciferase), and control (pCMX-Galactosidase expression vector) (Willey et al. Genes & Development 91033-1045 (1995)). Transfection reagent such as FuGENE6 (Roche). 1× Cell lysis buffer (1% Triton X 100 (IT Baker X200-07), 10% Glycerol (JT Baker M778-07), 5 mM Ditriotreitol (Quantum Bioprobe DTT03; add fresh before lysing), 1 mM EGTA (Ethylene Glycol-bis(B-Amino ethyl ether)-N,N,N′,N′-Tetracetic Acid) (Sigma E-4378), 25 mM Tricine (ICN 807420) pH 7.8) 1× Luciferase assay buffer (pH at 7.8) (0.73 mM ATP, 22.3 mM Tricine, 0.11 mM EDTA, 33.3 mM DTT) 1× Luciferrin/CoA (11 mM Luciferin, 3.05 mM Coenzyme A, 10 mM HEPES) Preparation of Screening Reagents
CV-1 cells were prepared 24 hours prior to the experiment by plating them into T-175 flasks or 500 cm^2 dishes in order to achieve 70-80% confluency on the day of the transfection. The number of cells to be transfected was determined by the number of plates to be screened. each 384 well plate requires 1.92×10^6 cells or 5000 cells per well. DNA Transfection Reagent was prepared by mixing the required plasmid DNAs with a cationic lipid transfection reagent FuGENE6 (Roche) by following the instructions provided with the reagents. Optimal DNA amounts were determined empirically per cell line and size of vessel to be transfected. 10-12 mL of media was added to the DNA Transfection Reagent and this mixture was added to the cells after aspirating media from the T175 cm^2 flask. Cells were then incubated at least 5 hours at 37° C. to prepare screening cells.
Luciferase assay reagent was prepared by combining before use (per 10 mL): […], 0.54 mL of 1× Luciferrin/CoA; 0.54 mL of 0.2 M Magnesium sulfate
Assay plates were prepared by dispensing 5 μL of compound per well of a 384 well plate to achieve final compound concentration of 10 μM and no more than 1% DMSO. Media was removed from the screening cells, the cells trypsinized, harvested cells by centrifugation, counted, and plated at a density of approximately 5000 cells per well in the 384 well assay plate prepared above in a volume of about 45 μL. Assay plates containing both compounds and screening cells (50 μL in total volume) were incubated for 20 hours at 37° C.
After incubation with compounds, media was removed from the cells and lysis buffer (30 μL/well) added. After 30 minutes at ambient temperature, luciferase assay buffer (30 μL/well) was added and the assay plates read on a luminometer (PE Biosystems Northstar reader with on-board injectors, or equivalent). Plates were read immediately after addition of luciferase assay buffer.
The LXR/LXRE co-transfection assay can be used to establish the EC50/IC50 values for potency and percent activity or inhibition for efficacy. Efficacy defines the activity of a compound relative to a high control ((N-(3-((4-fluorophenyl)-(naphthalene-2-sulfonyl)amino)propyl)-2,2-dimethylpropionamide)) or a low control (DMSO/vehicle). The dose response curves are generated from an 8 point curve with concentrations differing by ½ LOG units. each point represents the average of 4 wells of data from a 384 well plate. […]
(A reporter such as luciferase makes a cellular process visible.)
Consider `Cc1cc(-c2cccc(S(C)(=O)=O)c2)ccc1-c1c(Cl)c(C(C)(C)O)nn1-c1cccnc1C(F)(F)F` [Example 1391, 2-(4-chloro-5-(3-methyl-3′-(methylsulfonyl)biphenyl-4-yl)-1-(2-(trifluoromethyl)pyridin-3-yl)-1H-pyrazol-3-yl)propan-2-ol], for which the negative-log EC50 (pEC50) was greater than 6.00.
With `CC(C)(O)c1cc(-c2ccc(-c3cccc(S(C)(=O)=O)c3)s2)n(-c2c(Cl)cncc2Cl)n1` [Example 126, 2-(1-(3,5-dichloropyridin-4-yl)-5-(5-(3-(methylsulfonyl)phenyl)thiophen-2-yl)-1H-pyrazol-3-yl)propan-2-ol], the pEC50 was greater than 6.00.
On to `CC(C)(O)c1cc(-c2ccc(-c3cccc(S(C)(=O)=O)c3)s2)n(-c2c(F)cccc2Cl)n1` [Example 1344, 2-[1-(2-chloro-6-fluorophenyl)-5-{5-[3-(methylsulfonyl)phenyl]-2-thienyl}-1H-pyrazol-3-yl]propan-2-ol], for which the pEC50 is greater than 6.00.
As to `COC(=O)c1cccc(-c2ccc(-c3cc(C(=O)NCC(F)(F)F)nn3-c3ccccc3Cl)s2)c1` [Example 1275], the pEC50 is 5.00 to 6.00.
The same measure for `CC(C)(O)c1cc(-c2ccccc2Cl)n(-c2ccc(-c3cccc(S(C)(=O)=O)c3)cc2)n1` [Example 1217, 2-{5-(2-chlorophenyl)-1-[3′-(methylsulfonyl)biphenyl-4-yl]-1H-pyrazol-3-yl}propan-2-ol]: 5.00 to 6.00; for `CC(C)(O)c1nn(-c2ccc(-c3cccc(S(C)(=O)=O)c3)cc2Cl)c(-c2cccc(F)c2F)c1Cl` [Example 1427, 2-(4-chloro-1-(3-chloro-3′-(methylsulfonyl)biphenyl-4-yl)-5-(2,3-difluorophenyl)-1H-pyrazol-3-yl)propan-2-ol]: greater than 6.00; for `COc1ncc(-c2ccc(-c3cc(C(C)(C)O)nn3-c3ccccc3Cl)cc2)cn1` [Example 1291, 2-[1-(2-chlorophenyl)-5-{4-[2-(methyloxy)pyrimidin-5-yl]phenyl}-1H-pyrazol-3-yl]propan-2-ol]: 5.00 to 6.00.
`CC(C)(O)c1cc(-c2ccc(-c3cccc(OC(F)(F)F)c3)s2)n(-c2ccccc2Cl)n1` [Example 1274, 2-[1-(2-chlorophenyl)-5-(5-{3-[(trifluoromethyl)oxy]phenyl}-2-thienyl)-1H-pyrazol-3-yl]propan-2-ol] had a negative-log EC50 (pEC50) of 5.00 to 6.00.
As for `CC(C)(O)c1cc(-c2ccc(-c3cccc(S(C)(=O)=O)c3)s2)n(-c2cc(F)ccc2Cl)n1` [Example 1334, 2-[1-(2-chloro-5-fluorophenyl)-5-{5-[3-(methylsulfonyl)phenyl]-2-thienyl}-1H-pyrazol-3-yl]propan-2-ol], the pEC50 is greater than 6.00.
The same measure for `CS(=O)(=O)c1cccc(-c2ccc(-c3cc(C(F)(F)F)nn3-c3ccccc3Cl)cc2C(=O)N2CCOCC2)c1` [Example 1142, 4-({4-[1-(2-chlorophenyl)-3-(trifluoromethyl)-1H-pyrazol-5-yl]-3′-(methylsulfonyl)biphenyl-2-yl}carbonyl)morpholine]: 5.00 to 6.00; for `CC(C)(O)c1cc(-c2ccc(-c3cccc(S(C)(=O)=O)c3)s2)n(-c2c(F)cccc2C(F)(F)F)n1` [Example 1353, 2-(1-[2-fluoro-6-(trifluoromethyl)phenyl]-5-{5-[3-(methylsulfonyl)phenyl]-2-thienyl}-1H-pyrazol-3-yl)propan-2-ol]: greater than 6.00.
The same measure for `CC(C)(C(=O)O)c1cccc(-c2ccc(-c3cc(C(F)(F)F)nn3-c3ncccc3C(F)(F)F)s2)c1` [Example 1165, 2-methyl-2-[3-(5-{3-(trifluoromethyl)-1-[3-(trifluoromethyl)pyridin-2-yl]-1H-pyrazol-5-yl}-2-thienyl)phenyl]propanoic acid]: 5.00 to 6.00; for `CS(=O)(=O)c1cccc(-c2ccc(-c3cc(C(=O)NCC(F)(F)F)nn3-c3ccccc3Cl)s2)c1` [Example 1161, 1-(2-chlorophenyl)-5-{5-[3-(methylsulfonyl)phenyl]-2-thienyl}-N-(2,2,2-trifluoroethyl)-1H-pyrazole-3-carboxamide]: greater than 6.00.
`CS(=O)(=O)c1cccc(-c2ccc(-c3c(Br)c(C(F)(F)F)nn3-c3c(Cl)cccc3Cl)s2)c1` [Example 1313, 4-bromo-1-(2,6-dichlorophenyl)-5-{5-[3-(methylsulfonyl)phenyl]-2-thienyl}-3-(trifluoromethyl)-1H-pyrazole] showed a negative logarithm of the EC50 (pEC50) greater than 6.00.
Consider `CS(=O)(=O)c1cccc(-c2ccc(-c3cc(C4(C#N)CC4)nn3-c3ccccc3Cl)s2)c1` [Example 1188, 1-[1-(2-chlorophenyl)-5-{5-[3-(methylsulfonyl)phenyl]-2-thienyl}-1H-pyrazol-3-yl]cyclopropanecarbonitrile], for which the pEC50 is greater than 6.00.
The same measure for `Cc1ccc(Cl)c(-n2nc(C(C)(C)O)cc2-c2ccc(-c3cccc(S(C)(=O)=O)c3)s2)c1Cl` [Example 1325, 2-[1-(2,6-dichloro-3-methylphenyl)-5-{5-[3-(methylsulfonyl)phenyl]-2-thienyl}-1H-pyrazol-3-yl]propan-2-ol]: greater than 6.00.
With `CC(C)(O)c1cc(-c2ccc(-c3cccc(C(F)(F)F)c3)cc2)n(-c2ccccc2Cl)n1` [Example 1287, 2-{1-(2-chlorophenyl)-5-[3′-(trifluoromethyl)biphenyl-4-yl]-1H-pyrazol-3-yl}propan-2-ol], the negative logarithm of the EC50 (pEC50) was 5.00 to 6.00.
In turn, `CS(=O)(=O)CCNC(=O)c1ccc(-c2cc(C(F)(F)F)nn2-c2ccccc2Cl)cc1` [Example 1364, 4-[1-(2-chlorophenyl)-3-(trifluoromethyl)-1H-pyrazol-5-yl]-N-[2-(methylsulfonyl)ethyl]benzamide] had a pEC50 of 5.00 to 6.00.
`Cc1cc(-c2cccc(S(C)(=O)=O)c2)ccc1-n1nc(C(C)(C)O)cc1-c1cccc(Cl)c1Cl` [Example 136, 2-(5-(2,3-dichlorophenyl)-1-(3-methyl-3′-(methylsulfonyl)biphenyl-4-yl)1H-pyrazol-3-yl)propan-2-ol] gave a negative logarithm of the EC50 (pEC50) greater than 6.00.
Molecule `CC(C)(O)c1cc(-c2ccc(-c3cccc(S(C)(=O)=O)c3)s2)n(-c2ccccc2F)n1` [Example 1261, 2-[1-(2-fluorophenyl)-5-{5-[3-(methylsulfonyl)phenyl]-2-thienyl}-1H-pyrazol-3-yl]propan-2-ol] gave a pEC50 greater than 6.00.
In turn, `CC(C)(CN)c1cc(-c2ccc(-c3cccc(S(C)(=O)=O)c3)s2)n(-c2ccccc2Cl)n1` [Example 1192, 2-[1-(2-chlorophenyl)-5-{5-[3-(methylsulfonyl)phenyl]-2-thienyl}-1H-pyrazol-3-yl]-2-methylpropan-1-amine] had a pEC50 greater than 6.00.
Regarding `CS(=O)(=O)c1cccc(-c2ccc(-c3cc(C(=O)NCCCN4CCCC4)nn3-c3ccccc3Cl)s2)c1` [Example 733, 1-(2-chlorophenyl)-5-{5-[3-(methylsulfonyl)phenyl]-2-thienyl}-N-(3-pyrrolidin-1-ylpropyl)-1H-pyrazol-3-carboxamide], the pEC50 was greater than 6.00.
Take `COc1cccc(-c2ccc(-c3cc(C(C)(C)O)nn3-c3ccccc3Cl)s2)c1OC` [Example 859, 2-[5-{5-[2,3-bis(methyloxy)phenyl]-2-thienyl}-1-(2-chlorophenyl)-1H-pyrazol-3-yl]propan-2-ol]: the pEC50 is 5.00 to 6.00.
Take `NS(=O)(=O)c1cccc(-c2ccc(-c3cc(C(F)(F)F)nn3-c3cc(Cl)ccc3Oc3ccccc3)s2)c1` [Example 1198, 3-(5-{1-[5-chloro-2-(phenyloxy)phenyl]-3-(trifluoromethyl)-1H-pyrazol-5-yl}-2-thienyl)benzenesulfonamide]: the pEC50 was greater than 6.00.

The term pEC50 denotes the EC50 on a negative log10 scale, so that one unit is a factor of ten. Lower therefore signals a large EC50.

(Values after patent US8703805B2 (Exelixis Patent Company LLC, priority 2005, dated 2014).)
